Drawing on ChEMBL document CHEMBL1127566, “Thienyl and thiazolyl acyclic analogues of 5-deazatetrahydrofolic acid” (J Med Chem, 1994), this text covers IC50, Km and Vmax for seven molecules.

In one data set the test system is MCF7. Description: Ability to inhibit growth of MCF-7 human breast adenocarcinoma in vitro. Type of data set: functional, cell-based.
The next data set concerns MOLT-4. Description: Ability to inhibit [3H]methotrexate transport into MOLT-4 cells in vitro. In kind it is functional, cell-based. The note with it: Homo sapiens.
In data set [1] the test system is folylpolyglutamate synthase (FPGS). Description: Km of Hog folyl-poly-glutamate synthase (FPGS) relative to aminopterin. The arrangement: species or system Sus scrofa. Conditions: pig, hog folylpolyglutamate synthase (FPGS) enzyme.
The species entered for the next data set is Sus scrofa. Kind of data set: Vmax of Hog folyl-poly-glutamate synthase (FPGS) relative to aminopterin. The note with it: pig, in vitro.
In another data set the test system is CCRF-CEM. Description: In vitro antitumor activity was assessed from rate of cell growth of CCRF/CEM cell line. In kind it is functional, cell-based. The note with it: Homo sapiens.
Substrate in data set [2]: Nc1nc(N)c(CCCNc2ccc(C(=O)N[C@@H](CCC(=O)O)C(=O)O)s2)c(O)n1
Description: (§1) Vmax of Hog Folyl-polyglutamate synthase relative to aminopterin. Conditions: Sus scrofa.

Substrate in data set [3]: Nc1nc(N)c(CCCNc2cnc(C(=O)N[C@@H](CCC(=O)O)C(=O)O)s2)c(O)n1
The data set is described as §1. Conditions: Sus scrofa.

Substrate in data set [4]: Nc1nc(N)c(CCCNc2ccc(C(=O)N[C@@H](CCC(=O)O)C(=O)O)s2)c(O)n1
Kind of data set: (§2) Km of Hog Folyl-polyglutamate synthase relative to aminopterin. The note with it: Sus scrofa.

Substrate in data set [5]: Nc1nc(N)c(CCCNc2cnc(C(=O)N[C@@H](CCC(=O)O)C(=O)O)s2)c(O)n1
The description is as §2. Conditions: Sus scrofa.

In the data set on MCF7, `Nc1nc(N)c(CCCNc2ccc(C(=O)N[C@@H](CCC(=O)O)C(=O)O)cc2)c(O)n1` came in with an IC50 of 37 nM. This counts as double-digit nanomolar.
For the molecule `Nc1nc(N)c(CCCNc2ccc(C(=O)N[C@@H](CCC(=O)O)C(=O)O)s2)c(O)n1`, the IC50 in the data set with MCF7 stood at 38 nM; with MOLT-4 it was 1600 nM.
Regarding `Nc1nc2c(c(=O)[nH]1)C[C@@H](CCc1ccc(C(=O)N[C@@H](CCC(=O)O)C(=O)O)cc1)CN2` [LOMETREXOL], the Km in [1] is 17.5 µM. Also, the Vmax in the data set filed under Sus scrofa is on record as 97%. In addition, the half-maximal inhibitory concentration (IC50) in the data set on MCF7 came to 18 nM; in the data set with MOLT-4, 1500 nM; in the data set with CCRF-CEM, 15 nM.
Take `Nc1nc(N)c(CCCNc2cnc(C(=O)N[C@@H](CCC(=O)O)C(=O)O)s2)c(O)n1`: the IC50 was 4 nM in the data set on MCF7 and 800 nM in the data set with MOLT-4.
`Nc1nc(O)c2c(n1)NCC(CCc1ccc(C(=O)N[C@@H](CCC(=O)O)C(=O)O)o1)C2` (stereo partly specified): half-maximal inhibition in the data set on CCRF-CEM (IC50) was put at 27 nM.
With `Nc1nc(O)c2c(n1)NCC(CCc1ccc(C(=O)N[C@@H](CCC(=O)O)C(=O)O)s1)C2` (stereo partly specified), 2.3 nM corresponded to half-maximal inhibition with CCRF-CEM (IC50).

B1: Folylpolyglutamate synthase, mitochondrial (Homo sapiens), Q05932 (protein)
chain: MSRARSHLRAALFLAAASARGITTQVAARRGLSAWPVPQEPSMEYQDAVRMLNTLQTNAGYLEQVKRQRGDPQTQLEAMELYLARSGLQVEDLDRLNIIHVTGTKGKGSTCAFTECILRSYGLKTGFFSSPHLVQVRERIRINGQPISPELFTKYFWRLYHRLEETKDGSCVSMPPYFRFLTLMAFHVFLQEKVDLAVVEVGIGGAYDCTNIIRKPVVCGVSSLGIDHTSLLGDTVEKIAWQKGGIFKQGVPAFTVLQPEGPLAVLRDRAQQISCPLYLCPMLEALEEGGPPLTLGLEGEHQRSNAALALQLAHCWLQRQDRHGAGEPKASRPGLLWQLPLAPVFQPTSHMRLGLRNTEWPGRTQVLRRGPLTWYLDGAHTASSAQACVRWFRQALQGRERPSGGPEVRVLLFNATGDRDPAALLKLLQPCQFDYAVFCPNLTEVSSTGNADQQNFTVTLDQVLLRCLEHQQHWNHLDEEQASPDLWSAPSPEPGGSASLLLAPHPPHTCSASSLVFSCISHALQWISQGRDPIFQPPSPPKGLLTHPVAHSGASILREAAAIHVLVTGSLHLVGGVLKLLEPALSQ
With B1, the Vmax in [2] is 118%; in data set [3] it was 99.3%. Also, the Km in data set [4] is 9.3 µM; in [5], 8.6 µM.

The IC50 is the midpoint of a concentration-inhibition curve. Lower therefore signals higher potency. As a reminder, the Km is the concentration of substrate that gives half-maximal velocity.
